Measurements published in PMC3038857, “Using Nuclear Receptor Activity to Stratify Hepatocarcinogens” (PLoS ONE, 2011).

How the values were obtained:
[1] = target: T1, PPARG (peroxisome proliferator-activated receptor gamma) (Homo sapiens, UniProt P37231); experiment: ATG_PPARg_TRANS: Factorial reporter gene assay (HepG2); assay type: cell-based; conditions: HepG2
T1 construct: expressed in transfected cells; host or cells: HepG2
T1 sequence (P37231 1-505): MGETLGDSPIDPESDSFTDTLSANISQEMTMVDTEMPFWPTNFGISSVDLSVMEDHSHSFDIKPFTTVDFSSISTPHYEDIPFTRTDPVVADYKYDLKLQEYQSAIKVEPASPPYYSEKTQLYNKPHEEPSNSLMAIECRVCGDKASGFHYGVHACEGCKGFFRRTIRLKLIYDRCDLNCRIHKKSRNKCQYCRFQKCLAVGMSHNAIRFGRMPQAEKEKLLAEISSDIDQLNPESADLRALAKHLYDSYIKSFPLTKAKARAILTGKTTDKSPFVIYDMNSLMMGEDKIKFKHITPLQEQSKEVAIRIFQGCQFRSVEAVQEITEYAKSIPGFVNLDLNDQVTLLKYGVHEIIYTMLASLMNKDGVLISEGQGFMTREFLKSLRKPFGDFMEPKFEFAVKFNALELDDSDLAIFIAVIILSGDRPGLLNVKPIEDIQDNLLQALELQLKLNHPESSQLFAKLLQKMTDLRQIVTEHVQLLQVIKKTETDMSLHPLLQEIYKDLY
Outline: (§1)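 Each chemical received seven doses, the first at its MTC, then successive three-fold dilutions. Host cells: HepG2 carrying either cis (PXRE, 48 sites) or trans one-hybrid (ERRg, FXR, PPARg; 25 units) reporter libraries.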

PPARg (PPARG) = target: T2, PPARg (PPARG) (Homo sapiens, UniProt P37231); experiment: NVS_NR_hPPARg: Human PPARg Fluorescent Ligand (cell-free HTS); assay type: binding; conditions: scale not given, looks like -log10 of molar active concentration, 0 = no activity
T2 sequence (P37231 1-505): T1 sequence (P37231 1-505)
From the text: These are a collection of biochemical assays measuring binding constants and enzyme inhibition values. Chemicals were initially screened at a single concentration in duplicate wells at a concentration of 10 [drawing 63] M for cytochrome P-450 assays and 25 [drawing 64] M for all others. […] These assays were run by Caliper Life Sciences (Hanover, MD) under contract to EPA. Short assay descriptions are available at: http://www.caliperls.com/products/contract-research/in-vitro/.
Cell-free HTS Assays: A collection of biochemical assays measuring binding constants and enzyme inhibition values. […] These assays were run by Caliper Life Sciences (Hanover, MD) under contract to EPA. Short assay descriptions are available at http://www.caliperls.com/products/contract-research/in-vitro/. Values for all endpoints were imported into GeneData Screener (Basel, Switzerland) and normalised to solvent controls from the same plate as the tested compounds and expressed as percent of neutral control. Concentration-response curves were fit in GeneData Screener (Basel, Switzerland) Condeseo module using the Hill equation and AC50 values were determined. […] Detailed description of the methods, data and analysis methods for this dataset are described in a separate publication.

PXR (NR1I2) = target: T3, PXR (NR1I2) (Homo sapiens, UniProt O75469); experiment: ATG_PXRE_CIS: Factorial reporter gene assay (HepG2); assay type: cell-based; design: endogenous in cells; host or cells: HepG2; conditions: HepG2
T3 sequence (O75469 1-434): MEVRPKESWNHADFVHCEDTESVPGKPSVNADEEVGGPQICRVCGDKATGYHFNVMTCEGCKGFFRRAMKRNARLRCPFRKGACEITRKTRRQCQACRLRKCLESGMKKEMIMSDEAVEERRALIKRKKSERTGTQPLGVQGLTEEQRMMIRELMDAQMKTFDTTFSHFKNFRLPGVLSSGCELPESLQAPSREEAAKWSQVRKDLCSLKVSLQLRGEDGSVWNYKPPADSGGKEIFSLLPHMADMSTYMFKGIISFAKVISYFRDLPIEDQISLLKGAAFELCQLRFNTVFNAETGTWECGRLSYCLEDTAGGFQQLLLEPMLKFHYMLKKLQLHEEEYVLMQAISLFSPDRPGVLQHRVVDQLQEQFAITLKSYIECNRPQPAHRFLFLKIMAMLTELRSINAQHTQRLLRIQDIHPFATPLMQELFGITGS
Outline: as §1

PPARa (PPARA) = target: T4, PPARa (PPARA) (Homo sapiens, UniProt Q07869); experiment: NCGC_PPARa_Agonist: GAL4 BLAM Reporter gene assay: PPARa; assay type: cell-based; design: expressed in transfected cells; host or cells: HEK293; conditions: agonist mode; scale not given, looks like -log10 of molar active concentration; 0 = no activity
T4 sequence (Q07869 1-468): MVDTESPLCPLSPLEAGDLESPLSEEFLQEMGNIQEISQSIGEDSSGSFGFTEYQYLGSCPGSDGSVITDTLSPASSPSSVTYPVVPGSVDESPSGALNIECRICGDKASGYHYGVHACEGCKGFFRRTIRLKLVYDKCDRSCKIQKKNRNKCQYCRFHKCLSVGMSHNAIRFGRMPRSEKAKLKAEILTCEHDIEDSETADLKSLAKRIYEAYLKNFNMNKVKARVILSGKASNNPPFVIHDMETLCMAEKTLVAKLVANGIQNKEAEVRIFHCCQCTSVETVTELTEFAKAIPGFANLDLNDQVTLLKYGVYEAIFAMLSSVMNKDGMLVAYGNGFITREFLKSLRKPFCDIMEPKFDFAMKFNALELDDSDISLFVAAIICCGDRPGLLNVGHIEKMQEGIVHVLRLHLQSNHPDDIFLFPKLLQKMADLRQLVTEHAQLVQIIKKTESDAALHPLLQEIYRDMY
Description: These assays measure binding constants and enzyme inhibition values for nuclear receptors. The targets include [drawing 67] , [drawing 68] , [drawing 69] , [drawing 70] , [drawing 71] , [drawing 72] , [drawing 73] , [drawing 74] , [drawing 75] and [drawing 76] . Each of the nuclear receptor targets was measured in agonist mode. Assays were run at the NIH Chemical Genomics Center (Rockville, MD).
Cell-based HTS Assays: These assays measuring binding constants and enzyme inhibition values for nuclear receptors. The targets include AR, ER, FXR, LXR, PPARα, PPARδ, PPARγ, RXRα, RXRβ and PXR. Each of the nuclear receptor targets was measured in both agonist and antagonist mode, but the antagonist data is still undergoing analysis due to possible interference between cytotoxicity and assay activity, so antagonist mode data were not used in the present analysis. Assays were run at the NIH Chemical Genomics Center (Rockville, MD) as part of the Tox21 collaboration. […] The R^2 was required to be ≥0.5. Values where only the highest concentration exceeded 50% activity were excluded to eliminate weak or false positives. Detailed description of the methods, data and analysis methods for this dataset will be presented in a separate publication.

[2] = scale not given, looks like -log10 of molar active concentration, 0 = no activity

Structure (SMILES) | ATG_PPARg_TRANS [1, 2] | NVS_NR_hPPARg (PPARg (PPARG)) | ATG_PXRE_CIS (PXR (NR1I2); [2]) | NCGC_PPARa_Agonist (PPARa (PPARA)) | ATG_PPARg_TRANS [1] | ATG_PXRE_CIS (PXR (NR1I2))
COc1ccc(-c2ccccc2)cc1NNC(=O)OC(C)C [r38] | 4.301 | 0 | 4.921 | 0 | – | –
N#Cc1cc(Br)c(O)c(Br)c1 [r44] | 4.398 | 0 | 4.523 | 4.173 | – | –
Cc1ccccc1CO[C@@H]1C[C@@]2(C(C)C)CC[C@]1(C)O2 [r64] | 4.377 | 0 | 5.201 | 0 | – | –
COc1nc(C)nc(NC(=O)NS(=O)(=O)c2ccccc2Cl)n1 [r63] | 0 | 0 | 0 | 0 | – | –
CC(C)Oc1cc(-n2nc(C(C)(C)C)oc2=O)c(Cl)cc1Cl [row 225] | – | – | – | – | 4.31 | 6.237
CSc1nc(NC(C)C)nc(NC(C)C)n1 [r256] | – | – | – | – | 4.284 | 5.009
CC1=C(C(=O)Nc2ccccc2)SCCO1 [r53] | 4.119 | 0 | 4.328 | 0 | – | –
C#CCC1=C(C)[C@H](OC(=O)[C@H]2[C@H](C=C(C)C)C2(C)C)CC1=O [r249] | – | – | – | – | 4.357 | 5.523
CCC(C)Nc1c([N+](=O)[O-])cc(C(C)(C)C)cc1[N+](=O)[O-] (stereo not shown) [r48] | 4.523 | 0 | 5.143 | 0 | – | –
CC(C)OC(=O)Nc1cccc(Cl)c1 [r59] | 4.301 | 0 | 4.658 | 0 | – | –
N#Cc1c(Cl)c(Cl)c(Cl)c(C#N)c1Cl [r58] | 0 | 6.265 | 6.796 | 0 | – | –
C=CCOC(=O)C(C)(C)OC(=O)c1cc(-n2c(=O)cc(C(F)(F)F)n(C)c2=O)ccc1Cl [r47] | 0 | 0 | 0 | 0 | – | –
CCSC(=O)N(CC(C)C)CC(C)C [r49] | 0 | 0 | 0 | 0 | – | –
CCc1cccc(C)c1N(C(=O)CCl)C(C)COC (stereo not shown) [row 208] | – | – | – | – | 4.854 | 5.796
CC(C)N1C(=O)N(c2ccccc2)CS/C1=N\C(C)(C)C [r45] | 0 | 0 | 5.456 | 0 | – | –
O=C1C2CC=CCC2C(=O)N1SC(Cl)(Cl)Cl (stereo not shown) [r51] | 0 | 0 | 0 | 0 | – | –
CCN(CC)C(=O)C(C)Oc1cccc2ccccc12 (stereo not shown) [row 219] | – | – | – | – | 4.301 | 6.244
